Calls of active or inactive are those of the source. The rule behind the calls is not given here.
Assays:
[1] = tested on: Lewis lung carcinoma cell line; assay: Anticancer activity against Lewis lung carcinoma cells measured after 3 days by MTT assay; format: functional, cell-based; conditions: Mus musculus, 72 h
[2] = Drug uptake in human PC-9 cells at 10 uM by fluorescence microscopy; format: ADME, cell-based; conditions: pc-9, 10 µM
[3] = molecular target: COP9 signalosome complex subunit 5 (Homo sapiens) (UniProt Q92905); assay: Induction of PD-L1 degradation in human NCI-H460 cells upto 20 uM in presence of MG132 by Western blot analysis; format: cell-based
[4] = molecular target: COP9 signalosome complex subunit 5 (Homo sapiens) (UniProt Q92905); assay: Induction of PD-L1 degradation in human NCI-H460 cells at 10 uM pretreated with compound followed by CHX incubation upto 8 hrs by Western blot analysis; format: cell-based
[5] = molecular target: COP9 signalosome complex subunit 5 (Homo sapiens) (UniProt Q92905); assay: Induction of PD-L1 degradation in human NCI-H460 cells at 10 uM by Western blot analysis; format: cell-based; conditions: time <= 36.0 hrs
NCI-H460 = assay: Antiproliferative activity against human NCI-H460 cells at 10 uM measured after 4 days by MTT assay; format: functional, cell-based; conditions: time 4.0 day
[6] = Toxicity in C57BL/6 mouse model xenografted with […] cells assessed as body weight loss at 10 mg/kg, ip administered daily for 10 days; format: organism-based; conditions: in vivo, 240 h, time 10 day
HEK-293T = assay: Antiproliferative activity against HEK293T cells at 10 uM incubated for 4 days; format: toxicity, cell-based; conditions: human, 96 h, time 4 day
3T3-L1 = assay: Antiproliferative activity against mouse 3T3-L1 cells at 10 uM incubated for 4 days; format: toxicity, cell-based; conditions: 3t3-l1, 96 h, time 4 day
A549 = assay: Effect on IFN-gamma-induced PD-L1 mRNA expression in human A549 cells at 10 uM by qRT-PCR analysis; format: functional, cell-based
[7] = Toxicity in C57BL/6 mouse model xenografted with […] cells assessed as obvious damage in liver at 10 mg/kg, ip administered daily for 10 days by H and E staining based analysis; format: organism-based; conditions: in vivo, 240 h, time 10 day
[8] = tested on: Lewis lung carcinoma cell line; assay: Antitumor T-cell immune response in Lewis lung carcinoma cells xenografted in C57BL/6 mouse model assessed as decrease in CD3+ CD4+ population in CD45+ T cells in tumor at 10 mg/kg, ip administered daily for 10 days by flow cytometry; format: functional, organism-based; conditions: time 10.0 day
[9] = Toxicity in C57BL/6 mouse model xenografted with […] cells assessed as obvious damage in spleen at 10 mg/kg, ip administered daily for 10 days by H and E staining based analysis; format: organism-based; conditions: in vivo, 240 h, time 10 day
[10] = Toxicity in C57BL/6 mouse model xenografted with […] cells assessed as obvious damage in heart at 10 mg/kg, ip administered daily for 10 days by H and E staining based analysis; format: organism-based; conditions: in vivo, 240 h, time 10 day
[11] = molecular target: COP9 signalosome complex subunit 5 (Homo sapiens) (UniProt Q92905); assay: Induction of IFN-gamma-induced PD-L1 degradation in human A549 cells at 10 uM incubated for 24 hrs by Western blot analysis; format: cell-based
[12] = Toxicity in C57BL/6 mouse model xenografted with […] cells assessed as obvious damage in lung at 10 mg/kg, ip administered daily for 10 days by H and E staining based analysis; format: organism-based; conditions: in vivo, 240 h, time 10 day
PC-9 = assay: Effect on PD-L1 mRNA level in human PC-9 cells at 10 uM incubated for 24 hrs by qRT-PCR analysis; format: functional, cell-based

COP9 signalosome complex subunit 5 (Homo sapiens), sequence (Q92905 2-334 limits assumed, one chain of several): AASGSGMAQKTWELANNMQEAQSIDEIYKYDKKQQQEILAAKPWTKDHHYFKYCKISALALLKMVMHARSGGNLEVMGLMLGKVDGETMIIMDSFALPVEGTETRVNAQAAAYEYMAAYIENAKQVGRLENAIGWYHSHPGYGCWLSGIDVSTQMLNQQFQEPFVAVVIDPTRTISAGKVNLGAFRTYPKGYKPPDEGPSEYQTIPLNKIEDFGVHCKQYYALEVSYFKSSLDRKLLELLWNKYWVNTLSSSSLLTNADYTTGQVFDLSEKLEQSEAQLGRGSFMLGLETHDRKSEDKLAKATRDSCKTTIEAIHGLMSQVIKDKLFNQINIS

With `COc1cc2c(cc1OC)-c1cc3ccc(OC)c(OCCN)c3c[n+]1CC2.[Cl-]` the IC50 [1] was 122 µM, the Drug uptake [2] was “Time-dependent-effect” and the Activity [3] was “inactive”. For the same compound, the Activity [4] was “inactive”, the Activity [5] was “Time-dependent-effect” and the Activity (NCI-H460) was “inactive”. The Activity [6] was “Non-toxic”, the Activity (HEK-293T) was “Non-toxic” and the Activity (3T3-L1) was “Non-toxic”. The Activity (A549) was “inactive”, the Activity [7] was “Non-toxic” and the Activity [8] was “Active”. The Activity [9] was “Non-toxic”, the Activity [10] was “Non-toxic” and the Activity [11] was “Active”. For the same compound, the Activity [12] was “Non-toxic” and the Activity (PC-9) was “inactive”.

— ChEMBL document CHEMBL6092191, “Advancing Cancer Immunotherapy through Engineering New PD-L1 Degraders: A Comprehensive Study from Small Molecules to PD-L1-Specific Peptide-Drug Conjugates” (J Med Chem, 2024)
